# Measured values as given in ChEMBL document CHEMBL1909046, “DrugMatrix in vitro pharmacology data”.
# pIC50: −log10 of the molar value.
# Tests used:
# [1] = molecular target: Voltage-gated inwardly rectifying potassium channel KCNH2 (Homo sapiens, UniProt Q12809); conditions: hek293; note: in other assays of this panel Not Active means under 50% inhibition at 10 µM
# [2] = molecular target: Beta-2 adrenergic receptor (Homo sapiens, UniProt P07550); test: DRUGMATRIX: Adrenergic beta2 radioligand binding (ligand: [3H] CGP-12177); assay type: cell membranes, CHO, Membrane; conditions: cho; Not Active = under 50% inhibition at 10 µM
# [3] = molecular target: Mitogen-activated protein kinase 14 (Homo sapiens, UniProt Q16539); parameters: species or system Escherichia coli;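 note: inhibition of p38alpha enzyme activity in a biochemical kinase assay, with myelin basic protein serving as substrate; in other assays of this panel Not Active means under 50% inhibition at 10 µM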
# [4] = molecular target: Protein phosphatase 3 catalytic subunit alpha (Homo sapiens, UniProt Q08209); parameters: species or system Escherichia coli;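 note: inhibition of calcineurin (PP2B) enzyme activity, measured with DiFMUP as the substrate; in other assays of this panel Not Active means under 50% inhibition at 10 µM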
# [5] = molecular target: Carbonic anhydrase 2 (Homo sapiens, UniProt P00918); test: DRUGMATRIX: Carbonic Anhydrase II enzyme inhibition (substrate: 4-Nitrophenyl acetate (4-NPA)); assay type: tissue-based, Erythrocyte; conditions: Not Active = under 50% inhibition at 10 µM; for IC50 / Ki: erythrocyte
# [6] = DRUGMATRIX: Glutamate, NMDA, Agonism radioligand binding (ligand: [3H] CGP-39653); assay type: cell membranes, Rattus norvegicus, Wistar, Cerebral cortex, Membrane; conditions: Not Active = under 50% inhibition at 10 µM
# [7] = molecular target: T1, C-X-C chemokine receptor type 1 (Homo sapiens, UniProt P25024); note: in other assays of this panel Not Active means under 50% inhibition at 10 µM
# T1 sequence (P25024 whole entry): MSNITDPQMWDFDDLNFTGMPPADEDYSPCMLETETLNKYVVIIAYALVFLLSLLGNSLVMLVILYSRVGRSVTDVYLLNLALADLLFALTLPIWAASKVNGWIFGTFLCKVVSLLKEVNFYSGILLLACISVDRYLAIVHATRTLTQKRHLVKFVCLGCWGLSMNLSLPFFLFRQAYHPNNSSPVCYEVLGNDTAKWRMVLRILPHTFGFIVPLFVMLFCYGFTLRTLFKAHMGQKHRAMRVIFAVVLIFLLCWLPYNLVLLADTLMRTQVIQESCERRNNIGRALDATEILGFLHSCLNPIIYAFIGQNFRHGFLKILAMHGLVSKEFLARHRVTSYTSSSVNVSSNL
# Mitogen-activated protein kinase 14, sequence (Q16539 whole entry): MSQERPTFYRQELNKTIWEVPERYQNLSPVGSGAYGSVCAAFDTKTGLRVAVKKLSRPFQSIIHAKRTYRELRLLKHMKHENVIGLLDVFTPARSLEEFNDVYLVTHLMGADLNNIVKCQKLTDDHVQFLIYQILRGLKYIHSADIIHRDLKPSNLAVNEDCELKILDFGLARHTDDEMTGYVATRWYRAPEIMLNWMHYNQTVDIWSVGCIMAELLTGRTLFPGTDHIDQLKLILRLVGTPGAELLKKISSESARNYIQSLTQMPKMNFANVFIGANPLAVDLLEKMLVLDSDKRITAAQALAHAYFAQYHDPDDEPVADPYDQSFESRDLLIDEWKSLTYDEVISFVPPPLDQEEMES
# Voltage-gated inwardly rectifying potassium channel KCNH2, sequence (Q12809 whole entry): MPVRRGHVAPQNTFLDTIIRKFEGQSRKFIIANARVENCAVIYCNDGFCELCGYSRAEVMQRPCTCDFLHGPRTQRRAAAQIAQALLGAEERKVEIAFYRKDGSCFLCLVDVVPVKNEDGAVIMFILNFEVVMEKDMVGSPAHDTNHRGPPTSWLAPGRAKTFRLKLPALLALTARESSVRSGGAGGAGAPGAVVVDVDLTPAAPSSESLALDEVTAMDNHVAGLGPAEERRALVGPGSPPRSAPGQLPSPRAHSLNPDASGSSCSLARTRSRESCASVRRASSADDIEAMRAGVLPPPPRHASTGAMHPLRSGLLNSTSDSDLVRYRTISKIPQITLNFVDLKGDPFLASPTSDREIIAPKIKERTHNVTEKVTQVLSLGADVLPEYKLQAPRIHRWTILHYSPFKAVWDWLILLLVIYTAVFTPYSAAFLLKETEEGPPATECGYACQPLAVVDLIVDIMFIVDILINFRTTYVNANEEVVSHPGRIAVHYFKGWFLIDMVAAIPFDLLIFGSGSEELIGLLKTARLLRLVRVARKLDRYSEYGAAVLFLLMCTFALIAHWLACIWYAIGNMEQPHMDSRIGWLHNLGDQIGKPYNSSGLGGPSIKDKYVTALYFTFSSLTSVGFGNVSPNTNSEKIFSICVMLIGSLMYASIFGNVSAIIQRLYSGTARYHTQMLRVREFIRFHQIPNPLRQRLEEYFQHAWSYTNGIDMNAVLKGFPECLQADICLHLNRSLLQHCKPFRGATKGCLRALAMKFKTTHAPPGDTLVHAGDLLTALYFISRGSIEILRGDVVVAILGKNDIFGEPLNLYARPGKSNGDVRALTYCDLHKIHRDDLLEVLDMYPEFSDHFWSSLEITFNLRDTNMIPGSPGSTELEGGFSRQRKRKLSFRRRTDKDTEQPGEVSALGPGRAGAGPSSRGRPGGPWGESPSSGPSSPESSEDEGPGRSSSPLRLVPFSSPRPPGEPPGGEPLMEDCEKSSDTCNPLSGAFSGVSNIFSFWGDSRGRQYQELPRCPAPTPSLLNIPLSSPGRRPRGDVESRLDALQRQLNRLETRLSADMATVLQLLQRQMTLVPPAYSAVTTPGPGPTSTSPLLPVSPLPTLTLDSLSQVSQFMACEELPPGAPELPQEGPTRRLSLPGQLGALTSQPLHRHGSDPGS
Molecule,IC50 [1],Ki [1],IC50 [2],IC50 [3],IC50 [4],IC50 [5],IC50 [6],Ki [6],IC50 [7],pIC50 ([5]; read-out: IC50),Ki [2],Ki [3],Ki [4],Ki [5],Ki [7]
CS(=O)(=O)Nc1ccc([N+](=O)[O-])cc1Oc1ccccc1 [NIMESULIDE],Not Active,Not Active,Not Active,Not Active,Not Active,Not Active,Not Active,Not Active,Not Active,,,,,,
CN1C(=O)CN=C(c2ccccc2)c2cc([N+](=O)[O-])ccc21 [NIMETAZEPAM],Not Active,Not Active,Not Active,Not Active,Not Active,Not Active,Not Active,Not Active,Not Active,,,,,,
COc1ccc2c(c1OC)C(=O)O[C@@H]2[C@H]1c2c(cc3c(c2OC)OCO3)CCN1C [NOSCAPINE],Not Active,Not Active,Not Active,Not Active,Not Active,Not Active,Not Active,Not Active,Not Active,,,,,,
C[C@@H]1O[C@@H](O[C@H]2C[C@@H](O)[C@]3(CO)[C@H]4[C@H](O)C[C@]5(C)[C@@H](C6=CC(=O)OC6)CC[C@]5(O)[C@@H]4CC[C@]3(O)C2)[C@H](O)[C@H](O)[C@H]1O [OUABAIN],Not Active,Not Active,Not Active,Not Active,Not Active,Not Active,Not Active,Not Active,Not Active,,,,,,
NC(=O)N1c2ccccc2CC(=O)c2ccccc21 [OXCARBAZEPINE],Not Active,Not Active,Not Active,Not Active,Not Active,Not Active,Not Active,Not Active,Not Active,,,,,,
COc1ccnc(C[S+]([O-])c2nc3ccc(OC(F)F)cc3[nH]2)c1OC (centres undefined) [PANTOPRAZOLE],Not Active,Not Active,Not Active,Not Active,Not Active,Not Active,Not Active,Not Active,Not Active,,,,,,
NNCCc1ccccc1 [PHENELZINE],Not Active,Not Active,Not Active,Not Active,Not Active,Not Active,Not Active,Not Active,Not Active,,,,,,
CCc1ccc(CCOc2ccc(CC3SC(=O)NC3=O)cc2)nc1 (centres undefined) [PIOGLITAZONE],Not Active,Not Active,Not Active,Not Active,Not Active,,Not Active,Not Active,Not Active,6.94,,,,,
CCCNC(C)C(=O)Nc1ccccc1C (centres undefined) [PRILOCAINE],Not Active,Not Active,Not Active,Not Active,Not Active,Not Active,Not Active,Not Active,Not Active,,,,,,
CCN(CC)CCNC(=O)c1ccc(N)cc1 [PROCAINAMIDE],Not Active,Not Active,Not Active,Not Active,Not Active,Not Active,Not Active,Not Active,Not Active,,,,,,
CCN(CC)CCCC(C)Nc1c2ccc(Cl)cc2nc2ccc(OC)cc12 (centres undefined) [QUINACRINE],Not Active,Not Active,Not Active,Not Active,Not Active,Not Active,Not Active,Not Active,Not Active,,,,,,
C[C@]12C=CC(=O)C=C1CC[C@H]1[C@@H]3C[C@@H](O)[C@](O)(C(=O)CO)[C@@]3(C)C[C@H](O)[C@@]12F [TRIAMCINOLONE],Not Active,Not Active,Not Active,Not Active,Not Active,Not Active,Not Active,Not Active,Not Active,,,,,,
CC[C@]1(O)C[C@@H]2CN(CCc3c([nH]c4ccccc34)[C@@](C(=O)OC)(c3cc4c(cc3OC)N(C)[C@H]3[C@@](O)(C(N)=O)[C@H](O)[C@]5(CC)C=CCN6CC[C@]43[C@@H]65)C2)C1 [VINDESINE],Not Active,Not Active,Not Active,Not Active,Not Active,Not Active,Not Active,Not Active,Not Active,,,,,,
CCN(C(C)=O)c1cccc(-c2ccnc3c(C#N)cnn23)c1 [ZALEPLON],Not Active,Not Active,Not Active,Not Active,Not Active,Not Active,Not Active,Not Active,Not Active,,,,,,
COBALTOUS CHLORIDE,Not Active,Not Active,Not Active,Not Active,Not Active,Not Active,Not Active,Not Active,Not Active,,Not Active,Not Active,Not Active,Not Active,Not Active
COLISTIN,Not Active,Not Active,Not Active,Not Active,Not Active,Not Active,Not Active,Not Active,Not Active,,Not Active,Not Active,Not Active,Not Active,Not Active
